Patent publication US20140271831A1, “RACECADOTRIL LIQUID COMPOSITIONS” (McNeil-PPC, Inc., priority 2013, published 2014)

Key:
[1] = Solubility of racecadotril in water, buffer and Beta-HPCD (statements); assay type: physicochemical
[2] = Stability of Racecadotril in Beta-Hydroxypropyl-Cyclodextrin (Beta-HPCD); assay type: physicochemical
Description: (§1) Formulations of racecadotril in beta-hydroxypropyl-cyclodextrin were evaluated (Table 4). • 1. Pipet 1 mL of Racecadotril solution into a 100 mL volumetric flask (V.F.) • 2. Dilute to volume with the same buffer used in the solution preparation. • 3. […] Parameters may be modified to optimize chromatography. • The assay of Racecadotril is determined by using the external standard injected. The degradation products levels are determined by % peak area relative to the Racecadotril peak. [table] [table] Mobil Phase A: Phosphate buffer, pH 2.5 (Buffer prep: dissolve 1 g of potassium dihydrogen phosphate in water, adjust to pH 2.5 with phosphoric acid, dilute to 1000 mL with water) Mobil Phase B: 100% Acetonitrile

[3] = cited from earlier work
[4] = Stability of Racecadotril in Buffer Solutions; assay type: physicochemical
Description: as §1, with “For comparative purposes, the stability” for “Formulations”, “racecadotril was analyzed when solubilized” for “racecadotril”, “pH 4.5 Acetate buffer and pH 4.5 Citrate buffer” for “beta-hydroxypropyl-cyclodextrin were evaluated”, “3).” for “4).”

[5] = Stability of Racecadotril in Water; assay type: physicochemical
Description: as §1, with “For comparative purposes, the stability” for “Formulations”, “was tested at room temperature and at 40° C.” for “in beta-hydroxypropyl-cyclodextrin were evaluated (Table 4).”

SMILES: CC(=O)SCC(Cc1ccccc1)C(=O)NCC(=O)OCc1ccccc1 (racemic) [Racecadotril]
- solubility in buffer compared with water [1]: more soluble in buffer than in water
- solubility utilizing the Beta-HPCD compared with buffers alone [1]: higher solubility
- stability in Beta-HPCD compared with buffers alone [2]: stability is similar to that in buffers alone
- Racecadotril in Beta-HPCD at 40° C. (%) with pH Adjustment to 4.5, Acetate Buffer ([2]; 1 Week): 96.16%
- Racecadotril in Beta-HPCD at 40° C. (%) with pH Adjustment to 4.5, Citrate Buffer ([2]; 1 Week): 96.20%
- Racecadotril in Beta-HPCD at 40° C. (%) without pH Adjustment, Acetate Buffer ([2]; 1 Week): 94.1%
- Racecadotril in Beta-HPCD at 40° C. (%) without pH Adjustment, Citrate Buffer ([2]; 1 Week): 93.6%
- Racecadotril in Beta-HPCD at 40° C. (%) with pH Adjustment to 4.5, Acetate Buffer ([2]; 2 Weeks): 92.7%
- Racecadotril in Beta-HPCD at 40° C. (%) with pH Adjustment to 4.5, Citrate Buffer ([2]; 2 Weeks): 92.91%
- Racecadotril in Beta-HPCD at 40° C. (%) with pH Adjustment to 4.5, Acetate Buffer ([2]; 3 Weeks): 88.95%
- Racecadotril in Beta-HPCD at 40° C. (%) with pH Adjustment to 4.5, Citrate Buffer ([2]; 3 Weeks): 89.59%
- Racecadotril in Beta-HPCD at 40° C. (%) with pH Adjustment to 4.5, Acetate Buffer ([2]; 4 Weeks): 85.84%
- Racecadotril in Beta-HPCD at 40° C. (%) with pH Adjustment to 4.5, Citrate Buffer ([2]; 4 Weeks): 86.80%
- Racecadotril in Beta-HPCD at 40° C. (%) with pH Adjustment to 4.5, Acetate Buffer ([2]; 12 Hours): 98.07%
- Racecadotril in Beta-HPCD at 40° C. (%) with pH Adjustment to 4.5, Citrate Buffer ([2]; 12 Hours): 98.12%
- Racecadotril in Beta-HPCD at 40° C. (%) without pH Adjustment, Acetate Buffer ([2]; 12 Hours): 96.9%
- Racecadotril in Beta-HPCD at 40° C. (%) without pH Adjustment, Citrate Buffer ([2]; 12 Hours): 96.9%
- Racecadotril in Beta-HPCD at 40° C. (%) with pH Adjustment to 4.5, Acetate Buffer ([2]; Initial): 99.58%
- Racecadotril in Beta-HPCD at 40° C. (%) with pH Adjustment to 4.5, Citrate Buffer ([2]; Initial): 99.58%
- Racecadotril in Beta-HPCD at 40° C. (%) without pH Adjustment, Acetate Buffer ([2]; Initial): 99.5%
- Racecadotril in Beta-HPCD at 40° C. (%) without pH Adjustment, Citrate Buffer ([2]; Initial): 99.3%
- water solubility [3]: low water solubility
- Racecadotril in pH 4.5 Acetate Buffer at 40° C. (% Racecadotril) ([4]; 1 Week): 96.7%
- Racecadotril in pH 4.5 Citrate Buffer at 40° C. (% Racecadotril) ([4]; 1 Week): 95.3%
- Racecadotril in pH 4.5 Acetate Buffer at 40° C. (% Racecadotril) ([4]; 2 Weeks): 93.3%
- Racecadotril in pH 4.5 Citrate Buffer at 40° C. (% Racecadotril) ([4]; 2 Weeks): 91.2%
- Racecadotril in pH 4.5 Acetate Buffer at 40° C. (% Racecadotril) ([4]; 3 Weeks): 91.5%
- Racecadotril in pH 4.5 Citrate Buffer at 40° C. (% Racecadotril) ([4]; 3 Weeks): 89.0%
- Racecadotril in pH 4.5 Acetate Buffer at 40° C. (% Racecadotril) ([4]; 4 Weeks): 88.0%
- Racecadotril in pH 4.5 Citrate Buffer at 40° C. (% Racecadotril) ([4]; 4 Weeks): 85.4%
- Racecadotril in pH 4.5 Acetate Buffer at 40° C. (% Racecadotril) ([4]; 12 Hours): 99.69%
- Racecadotril in pH 4.5 Citrate Buffer at 40° C. (% Racecadotril) ([4]; 12 Hours): 99.63%
- stability in buffer compared with water ([4]; 40° C. and 4 weeks): more stable in a buffer than in water
- Racecadotril in pH 4.5 Acetate Buffer at 40° C. (% Racecadotril) ([4]; Initial): 99.86%
- Racecadotril in pH 4.5 Citrate Buffer at 40° C. (% Racecadotril) ([4]; Initial): 99.74%
- Racecadotril (%) in Water at 40° C. ([5]; 1 Week): 0%
- Racecadotril (%) in Water at Room Temperature ([5]; 1 Week): 1.0%
- Racecadotril (%) in Water at 40° C. ([5]; 2 Weeks): 0.2%
- Racecadotril (%) in Water at Room Temperature ([5]; 2 Weeks): 0.0%
- Racecadotril (%) in Water at Room Temperature ([5]; 12 Hours): 44.9%
- Racecadotril (%) in Water at 40° C. ([5]; Initial): 78.88%
- Racecadotril (%) in Water at Room Temperature ([5]; Initial): 74.88%
- racecadotril present ([5]; in water, at 1 week): less than 1%
- stability of racecadotril in water ([5]; room temperature and 40° C., after 12 hours): unstable
